Reference: patent publication US20240383886A1, “Protein Tyrosine Phosphatase Degraders and Methods of Use Thereof” (CALICO LIFE SCIENCES LLC, priority 2019, published 2024)

What was measured:
PTPN2 [1] = experiment: HiBiT-Degradation B16F10.4 PTPN2; type: cell-based; conditions: B16F10.4 cells, 24.0 hours
PTPN2 [2] = biological target: T1, PTPN2 (Homo sapiens, UniProt P17706); experiment: HiBiT-Degradation 293T.109 PTPN2 (Nano-Glo HiBiT Lytic Assay); type: cell-based; conditions: 293T.109 (HiBiT-PTPN2) cells, 24.0 hours
T1 construct: expressed in transfected cells; host or cells: 293T (293T.109 HiBiT-PTPN2 line; parental 293T WT from ATCC)
T1 sequence (P17706 1-415): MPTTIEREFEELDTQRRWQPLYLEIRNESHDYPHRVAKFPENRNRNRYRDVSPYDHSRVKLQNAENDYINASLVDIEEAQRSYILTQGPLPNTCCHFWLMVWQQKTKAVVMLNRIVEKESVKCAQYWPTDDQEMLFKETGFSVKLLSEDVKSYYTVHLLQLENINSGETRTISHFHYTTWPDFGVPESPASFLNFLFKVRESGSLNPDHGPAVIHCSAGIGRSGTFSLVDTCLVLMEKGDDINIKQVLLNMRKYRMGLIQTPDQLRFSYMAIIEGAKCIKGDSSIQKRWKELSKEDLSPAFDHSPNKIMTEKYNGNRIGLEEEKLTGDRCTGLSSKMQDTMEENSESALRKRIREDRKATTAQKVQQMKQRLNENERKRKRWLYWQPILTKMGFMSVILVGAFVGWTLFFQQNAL
In short: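 293T cells ectopically expressing N-terminally HiBiT-tagged PTPN2 were seeded at 5000 cells/well. They were treated with an 11-point half-log titration from 10 μM, in duplicate, for 24 hours at 37° C., 5% CO2. Remaining tagged PTPN2 was quantified by lytic HiBiT luminescence against untreated and no-reagent controls.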

SMILES | DC50 (PTPN2 [1]) [nM] | DC50 (PTPN2 [2]) [nM]
Cn1c(=O)n(C2CCC(=O)NC2=O)c2ccc(N3CCC(O)(CC(=O)Nc4ccc5c(F)c(N6CC(=O)NS6(=O)=O)c(O)cc5c4)CC3)cc21 (centres unmarked) [Example 82, 2-[1-[1-(2,6-dioxo-3-piperidyl)-3-methyl-2-oxo-benzimidazol-5-yl]-4-hydroxy-4-piperidyl]-N-[5-fluoro-7-hydroxy-6-(1,1,4-trioxo-1,2,5-thiadiazolidin-2-yl)-2-naphthyl]acetamide] | 200 to 1000 | < 10
CC(C)n1c(=O)n(C2CCC(=O)NC2=O)c2ccc(C3CCN(CC(=O)NCCOc4ccc5cc(O)c(N6CC(=O)NS6(=O)=O)c(F)c5c4)CC3)cc21 (centres unmarked) [Example 85, 2-[4-[1-(2,6-dioxo-3-piperidyl)-3-isopropyl-2-oxo-benzimidazol-5-yl]-1-piperidyl]-N-[2-[[8-fluoro-6-hydroxy-7-(1,1,4-trioxo-1,2,5-thiadiazolidin-2-yl)-2-naphthyl]oxy]ethyl]acetamide] | 200 to 1000 | 50 to 200
Cn1c(=O)n(C2CCC(=O)NC2=O)c2ccc(C3CCN(CC(=O)N4CCC(c5ccc6cc(O)c(N7CC(=O)NS7(=O)=O)c(F)c6c5)C4)CC3)cc21 (centres unmarked) [Example 90, 3-[5-[1-[2-[3-[8-fluoro-6-hydroxy-7-(1,1,4-trioxo-1,2,5-thiadiazolidin-2-yl)-2-naphthyl]pyrrolidin-1-yl]-2-oxo-ethyl]-4-piperidyl]-3-methyl-2-oxo-benzimidazol-1-yl]piperidine-2,6-dione] | 200 to 1000 | 50 to 200
Cn1c(=O)n([C@@H]2CCC(=O)NC2=O)c2ccc(C3CCN(CC(=O)NCCOc4ccc5cc(O)c(N6CC(=O)NS6(=O)=O)c(F)c5c4)CC3)cc21 [Example 92, 2-[4-[1-[(3R)-2,6-dioxo-3-piperidyl]-3-methyl-2-oxo-benzimidazol-5-yl]-1-piperidyl]-N-[2-[[8-fluoro-6-hydroxy-7-(1,1,4-trioxo-1,2,5-thiadiazolidin-2-yl)-2-naphthyl]oxy]ethyl]acetamide] | 200 to 1000 | 50 to 200
CN(c1ccc(C2CCN(CC(=O)NCCOc3ccc4cc(O)c(N5CC(=O)NS5(=O)=O)c(F)c4c3)CC2)cc1)C1CCC(=O)NC1=O (centres unmarked) [Example 94, 2-[4-[4-[(2,6-dioxo-3-piperidyl)-methyl-amino]phenyl]-1-piperidyl]-N-[2-[[8-fluoro-6-hydroxy-7-(1,1,4-trioxo-1,2,5-thiadiazolidin-2-yl)-2-naphthyl]oxy]ethyl]acetamide] | 200 to 1000 | 200 to 1000
CN(CCOc1ccc2cc(O)c(N3CC(=O)NS3(=O)=O)c(F)c2c1)C(=O)CN1CCC(c2ccc3c(c2)n(C)c(=O)n3C2CCC(=O)NC2=O)CC1 (centres unmarked) [Example 97, 2-[4-[1-(2,6-dioxo-3-piperidyl)-3-methyl-2-oxo-benzimidazol-5-yl]-1-piperidyl]-N-[2-[[8-fluoro-6-hydroxy-7-(1,1,4-trioxo-1,2,5-thiadiazolidin-2-yl)-2-naphthyl]oxy]ethyl]-N-methyl-acetamide] | 200 to 1000 | 50 to 200
Cn1c(=O)n(C2CCC(=O)NC2=O)c2ccc(C3CCN(CCCCCCOc4ccc5cc(O)c(N6CC(=O)NS6(=O)=O)c(F)c5c4)CC3)cc21 (centres unmarked) [Example 98, 3-[5-[1-[6-[[8-fluoro-6-hydroxy-7-(1,1,4-trioxo-1,2,5-thiadiazolidin-2-yl)-2-naphthyl]oxy]hexyl]-4-piperidyl]-3-methyl-2-oxo-benzimidazol-1-yl]piperidine-2,6-dione] | 50 to 200 | 10 to 50
Cn1c(=O)n(C2CCC(=O)NC2=O)c2ccc(N3CCC(CNC(=O)c4ccc5c(F)c(N6CC(=O)NS6(=O)=O)c(O)cc5c4)CC3)cc21 (centres unmarked) [Example 99, N-[[1-[1-(2,6-dioxo-3-piperidyl)-3-methyl-2-oxo-benzimidazol-5-yl]-4-piperidyl]methyl]-5-fluoro-7-hydroxy-6-(1,1,4-trioxo-1,2,5-thiadiazolidin-2-yl)naphthalene-2-carboxamide] | 50 to 200 | 50 to 200
Cn1c(=O)n(C2CCC(=O)NC2=O)c2ccc(C3CCN(CC(=O)NCCOc4ccc5cc(O)c(N6CC(=O)NS6(=O)=O)c(Cl)c5c4)CC3)cc21 (centres unmarked) [Example 100, N-[2-[[8-chloro-6-hydroxy-7-(1,1,4-trioxo-1,2,5-thiadiazolidin-2-yl)-2-naphthyl]oxy]ethyl]-2-[4-[1-(2,6-dioxo-3-piperidyl)-3-methyl-2-oxo-benzimidazol-5-yl]-1-piperidyl]acetamide] | 200 to 1000 | 200 to 1000

Continued, values first:

DC50 (PTPN2 [1]) [nM] | DC50 (PTPN2 [2]) [nM] | SMILES
10 to 50 | < 10 | Cn1nc(C2CCC(=O)NC2=O)c2ccc(N3CCC(O)(CC(=O)Nc4ccc5c(F)c(N6CC(=O)NS6(=O)=O)c(O)cc5c4)CC3)cc21 (centres unmarked) [Example 83, 2-[1-[3-(2,6-dioxo-3-piperidyl)-1-methyl-indazol-6-yl]-4-hydroxy-4-piperidyl]-N-[5-fluoro-7-hydroxy-6-(1,1,4-trioxo-1,2,5-thiadiazolidin-2-yl)-2-naphthyl]acetamide]
50 to 200 | 10 to 50 | Cn1c(=O)n(C2CCC(=O)NC2=O)c2ccc(N3CCC(OCC(=O)Nc4ccc5c(F)c(N6CC(=O)NS6(=O)=O)c(O)cc5c4)CC3)cc21 (centres unmarked) [Example 84, 2-[[1-[1-(2,6-dioxo-3-piperidyl)-3-methyl-2-oxo-benzimidazol-5-yl]-4-piperidyl]oxy]-N-[5-fluoro-7-hydroxy-6-(1,1,4-trioxo-1,2,5-thiadiazolidin-2-yl)-2-naphthyl]acetamide]
50 to 200 | 10 to 50 | Cn1c(=O)n(C2CCC(=O)NC2=O)c2ccc(C3CCN(C4CC(C(=O)Nc5ccc6c(F)c(N7CC(=O)NS7(=O)=O)c(O)cc6c5)C4)CC3)cc21 (centres unmarked) [Example 86, 3-[4-[1-(2,6-dioxo-3-piperidyl)-3-methyl-2-oxo-benzimidazol-5-yl]-1-piperidyl]-N-[5-fluoro-7-hydroxy-6-(1,1,4-trioxo-1,2,5-thiadiazolidin-2-yl)-2-naphthyl]cyclobutanecarboxamide]
10 to 50 | 10 to 50 | Cn1c(=O)n(C2CCC(=O)NC2=O)c2ccc(C3CCN(C(=O)C(=O)Nc4ccc5c(F)c(N6CC(=O)NS6(=O)=O)c(O)cc5c4)CC3)cc21 (centres unmarked) [Example 87, 2-[4-[1-(2,6-dioxo-3-piperidyl)-3-methyl-2-oxo-benzimidazol-5-yl]-1-piperidyl]-N-[5-fluoro-7-hydroxy-6-(1,1,4-trioxo-1,2,5-thiadiazolidin-2-yl)-2-naphthyl]-2-oxo-acetamide]
50 to 200 | 50 to 200 | Cn1c(=O)n(C2CCC(=O)NC2=O)c2ccc(C3CCN(CC(=O)N4CC=C(c5ccc6cc(O)c(N7CC(=O)NS7(=O)=O)c(F)c6c5)C4)CC3)cc21 (centres unmarked) [Example 88, 3-[5-[1-[2-[3-[8-fluoro-6-hydroxy-7-(1,1,4-trioxo-1,2,5-thiadiazolidin-2-yl)-2-naphthyl]-2,5-dihydropyrrol-1-yl]-2-oxo-ethyl]-4-piperidyl]-3-methyl-2-oxo-benzimidazol-1-yl]piperidine-2,6-dione]
50 to 200 | 50 to 200 | Cn1c(=O)n(C2CCC(=O)NC2=O)c2ccc(C3CCN(CCC(=O)N4CC=C(c5ccc6cc(O)c(N7CC(=O)NS7(=O)=O)c(F)c6c5)C4)CC3)cc21 (centres unmarked) [Example 89, 3-[5-[1-[3-[3-[8-fluoro-6-hydroxy-7-(1,1,4-trioxo-1,2,5-thiadiazolidin-2-yl)-2-naphthyl]-2,5-dihydropyrrol-1-yl]-3-oxo-propyl]-4-piperidyl]-3-methyl-2-oxo-benzimidazol-1-yl]piperidine-2,6-dione]
50 to 200 | 10 to 50 | Cn1c(=O)n(C2CCC(=O)NC2=O)c2ccc(C3CCN(CCCn4cc(-c5ccc6cc(O)c(N7CC(=O)NS7(=O)=O)c(F)c6c5)cn4)CC3)cc21 (centres unmarked) [Example 91, 3-[5-[1-[3-[4-[8-fluoro-6-hydroxy-7-(1,1,4-trioxo-1,2,5-thiadiazolidin-2-yl)-2-naphthyl]pyrazol-1-yl]propyl]-4-piperidyl]-3-methyl-2-oxo-benzimidazol-1-yl]piperidine-2,6-dione]
50 to 200 | 10 to 50 | Cn1c(=O)n([C@H]2CCC(=O)NC2=O)c2ccc(C3CCN(CC(=O)NCCOc4ccc5cc(O)c(N6CC(=O)NS6(=O)=O)c(F)c5c4)CC3)cc21 [Example 93, 2-[4-[1-[(3S)-2,6-dioxo-3-piperidyl]-3-methyl-2-oxo-benzimidazol-5-yl]-1-piperidyl]-N-[2-[[8-fluoro-6-hydroxy-7-(1,1,4-trioxo-1,2,5-thiadiazolidin-2-yl)-2-naphthyl]oxy]ethyl]acetamide]
50 to 200 | 10 to 50 | Cn1c(=O)n(C2CCC(=O)NC2=O)c2ccc(C3CCN(CCCCCOc4ccc5cc(O)c(N6CC(=O)NS6(=O)=O)c(F)c5c4)CC3)cc21 (centres unmarked) [Example 95, 3-[5-[1-[5-[[8-fluoro-6-hydroxy-7-(1,1,4-trioxo-1,2,5-thiadiazolidin-2-yl)-2-naphthyl]oxy]pentyl]-4-piperidyl]-3-methyl-2-oxo-benzimidazol-1-yl]piperidine-2,6-dione]
50 to 200 | 50 to 200 | O=C(CN1CCC(c2ccc(NC3CCC(=O)NC3=O)c(Oc3ccccc3)c2)CC1)NCCOc1ccc2cc(O)c(N3CC(=O)NS3(=O)=O)c(F)c2c1 (centres unmarked) [Example 96, 2-[4-[4-[(2,6-dioxo-3-piperidyl)amino]-3-phenoxy-phenyl]-1-piperidyl]-N-[2-[[8-fluoro-6-hydroxy-7-(1,1,4-trioxo-1,2,5-thiadiazolidin-2-yl)-2-naphthyl]oxy]ethyl]acetamide]
